Data: ChEMBL document CHEMBL1152010, “Synthesis of new amide-linked N-hydroxyurea 5-lipoxygenase inhibitors by an intramolecular oxygen to nitrogen acyl transfer” (Bioorg Med Chem Lett, 1993)

Tests used:
[1] = Half life after oral dosing in rats; assay type: ADME, organism-based; conditions: rat, in vivo
Homo sapiens = species: Homo sapiens; experiment: Tested for the inhibition of leukotriene biosynthesis in human whole blood; assay type: functional

half-life [1] [h] | IC50 (Homo sapiens) [nM] | SMILES
3.6 | 230 | NC(=O)N(O)CCNC(=O)c1cccc(Oc2ccccc2)c1
1.5 | 90 | NC(=O)N(O)C/C=C/c1cccc(Oc2ccccc2)c1
